Where two headings read alike, the source gives them in different places.
Tests used:
[1] = tested on: cholesterol content of serum lipoprotein (VLDL, LDL, HDL); test: Cholesterol content of serum lipoprotein of rats treated orally for 14 days; type: in vivo; conditions: Sprague-Dawley rats, orally 14 days, 20 mg/kg/day; control 1% CMC = 100
Protocol: The cholesterol content of serum lipoprotein of
Sprague-Dawley Rats treated orally for 14 days at 20 mg/kg/day

[2] = tested on: serum cholesterol and triglyceride levels; test: Serum testing of normal rats: serum cholesterol and triglyceride levels, oral; type: in vivo; conditions: Sprague-Dawley male rats, 20 mg/kg/day orally
From the text: Test solution of Compounds A, F, J, M, N and O were suspended in an aqueous solution of 1% CMC, homogenized and administered orally to six Sprague-Dawley male rats, which each weighted approximately 350 grams. Administration of the compounds was by an intubation needle. The rats were each fed with 20 milligrams of Compounds A, F, J, M, N and O per kilogram of body weight per day for 14 days. Similarly, six Sprague-Dawley male rats of approximately the same weight (that used for testing F weighed approximately 160 grams) were fed similar volumes of the same aqueous 1% CMC solution without the active agents, also orally, administered by intubation needle. In addition, as a control, a similar group of six male Sprague-Dawley rats were untreated.
On Days 7 and 14, blood was obtained from each of the rats of the three groups by tail vein bleeding. The blood obtained was separated by centrifugation for three minutes. Serum cholesterol and triglyceride levels were determined in accordance with the procedure of Example 6.

[3] = tested on: serum cholesterol and serum triglyceride levels; test: Testing of hyperlipidemic mice: serum cholesterol and serum triglyceride levels on atherogenic diet; type: in vivo; conditions: hyperlipidemic CF1 male mice, 20 mg/kg/d ip, Day 12; diet-hyperlipidemic = 100
Protocol: A group of six CF1 male mice (about 25 g) were placed on a commercial diet (U.S. Biochemical Corporation BAsal Atherogenic Test Diet) which produced a "hyperlipidemic" state. That is, the average serum cholesterol level in the group of treated mice was raised from 122 to 375 mg percent and triglyceride levels were raised from 137 to 367 mg/dL.

[4] = tested on: serum cholesterol and serum triglyceride levels; test: Testing of normal mice: serum cholesterol and serum triglyceride levels, compounds 20 mg/kg/d ip for 16 days; type: in vivo; conditions: CF1 male mice; for response vs control in vivo at 20 mg/kg/day: Mus musculus
Protocol: The following compounds were tested for their hypolipidemic activity in CF1 mice.
Compounds A-V as defined above, were suspended in an aqueous 1 percent carboxymethylcellulose (CMC) solution and homogenized. Each of the so prepared compounds were administered to a group of six CF1 male mice, each weighing approximately 25 grams, intra-peritioneally for 16 days. Each of these compounds were provided in a dosage of 20 mg/kg/d ip. On Days 9 and 16 blood was obtained by tail vein bleeding. The blood serum so obtained was separated by centrifugation for three minutes. Serum cholesterol levels were determined by a modification of the Liebermann-Burchard reaction (Ness, Clin. Chim. Acta., Vol. 10, 229 [1964]). Serum triglyceride levels were determined on Day 16 by use of the Fisher, Hycel Triglyceride Test Kit.
In addition to the above-described treated mice, an untreated control group of six mice were similarly tested on Days 9 and 16 to determine their serum cholesterol and trigylceride blood levels. Based on the results obtained for the untreated control group, the percent control, based on serum cholesterol and serum triglyceride levels of the treated mice compared to the untreated mice, was obtained. Table 1 reports this percent control, including standard deviation, indicating the level of confidence of these numbers.

in vivo = conditions: mouse, ip
mice = test: LD50 in mice as single injection IP
[5] = 216 h, Day 9, ± standard deviation, read-out: Serum Cholesterol, Day 9 (percent control)
[6] = 384 h, Day 16, ± standard deviation, read-out: Serum Cholesterol, Day 16 (percent control)
[7] = 384 h, Day 16, ± standard deviation, read-out: Serum Triglyceride, Day 16 (percent control)

| SMILES | HDL cholesterol, Percent of Control [1] | LDL cholesterol, Percent of Control [1] | VLDL cholesterol, Percent of Control [1] | Serum Cholesterol, Day 7, Percent of Control [2] | Serum Triglyceride, Day 7, Percent of Control [2] | Serum Cholesterol, Day 14, Percent of Control [2] | Serum Triglyceride, Day 14, Percent of Control [2] | Serum Cholesterol, Percent of Control, hyperlipidemic mice [3] | Serum Triglyceride, Percent of Control, hyperlipidemic mice [3] | Serum Cholesterol, Day 9 (percent control) ([4]; Day 9, ± standard deviation) | Serum Cholesterol, Day 16 (percent control) ([4]; Day 16, ± standard deviation) | Serum Triglyceride, Day 16 (percent control) ([4]; Day 16, ± standard deviation) | response vs control in vivo at 20 mg/kg/day [4, 5] | response vs control in vivo at 20 mg/kg/day [4, 6] | response vs control in vivo at 20 mg/kg/day [4, 7] | LD50 (in vivo) | LD50 value in mice as single injection IP (mice) |
| --- | --- | --- | --- | --- | --- | --- | --- | --- | --- | --- | --- | --- | --- | --- | --- | --- | --- |
| CC(=O)n1[nH]c(=O)n(-c2ccccc2)c1=O [A, 4-phenyl-1-methylcarbonyl-1,2,4-triazolidine-3,5-dione] | 441% of Control | 74% of Control | 44% of Control | 89% of Control | 62% of Control | 69% of Control | 48% of Control | 41% of Control | 40% of Control |  |  |  |  |  |  |  |  |
| CCOC(=O)C1n2c(=O)n(-c3ccc(Cl)cc3)c(=O)n21 [L, 3-(4-chlorophenyl)-6-ethoxyacarbonyl-1,3,5-triazabicyclo[3.1.0]hexane-2,4-dione] |  |  |  |  |  |  |  |  |  | 74 ± 3 percent control | 56 ± 5 percent control | 66 ± 7 percent control |  |  |  |  |  |
| CCOC(=O)c1nc(=O)n(-c2ccc(Cl)cc2)c(=O)[nH]1 [O, 3-(4-chlorophenyl)-6-ethoxycarbonyl-1,3,5-triazine-2,4(1H,3 --H)-dione] | 113% of Control | 78% of Control | 27% of Control | 84% of Control | 82% of Control | 60% of Control | 77% of Control |  |  |  |  |  |  |  |  |  |  |
| O=C(Nc1ccccc1)n1[nH]c(=O)n(-c2ccccc2)c1=O [I, 4-phenyl-1-N-phenylcarbamoyl-1,2,4-triazolidine-3,5-dione] |  |  |  |  |  |  |  |  |  |  |  |  | 79 ± 7% | 74 ± 6% | 68 ± 6% |  |  |
| O=c1[nH][nH]c(=O)n1-c1ccc(Cl)cc1 [J, 4-(4-chlorophenyl)-1,2,4-triazolidine-3,5-dione] | 194% of Control | 43% of Control | 98% of Control | 59% of Control | 61% of Control | 60% of Control | 52% of Control | 46% of Control | 49% of Control |  |  |  |  |  |  |  |  |
| COc1ccc(-n2c(=O)[nH][nH]c2=O)cc1 [F, 4-(4-methoxyphenyl)-1,2,4-triazolidine-3,5-dione] | 141% of Control | 78% of Control | 59% of Control | 77% of Control | 87% of Control | 66% of Control | 81% of Control |  |  |  |  |  |  |  |  |  |  |
| CCOC(=O)c1nc(=O)n(-c2ccccc2)c(=O)[nH]1 [Compound N, 3-phenyl-6-ethoxycarbonyl-1,3,5-triazine-2,4(1 --H,3 --H)-dione] | 409% of Control | 87% of Control |  | 71% of Control | 61% of Control | 67% of Control | 53% of Control | 50% of Control | 46% of Control |  |  |  |  |  |  | > 500 mg/kg |  |
| CCOC(=O)C1n2c(=O)n(-c3ccccc3)c(=O)n21 [M, 3-phenyl-6-ethoxycarbonyl-1,3,5-triazabicyclo[3.1.0]hexane-2,4-dione] | 340% of Control | 67% of Control | 71% of Control | 70% of Control | 36% of Control | 36% of Control | 54% of Control | 46% of Control | 54% of Control | 62 ± 6 percent control | 57 ± 5 percent control | 59 ± 6 percent control |  |  |  |  | > 500 mg/kg |
| CCCCCC(=O)n1c(=O)n(CCCC)c(=O)n1C(=O)CCCCC [T, 4-(4-n-butyl)-1,2 dipentylcarbonyl-1,2,4-triazolidine-3,5-dione] |  |  |  |  |  |  |  |  |  |  |  |  | 69% | 49% | 53% |  |  |

From US5034528A, “Compositions for the control of hyperlipidemia” (North Carolina Central University, priority 1988, dated 1991)
